# Reference: PubChem BioAssay AID463203 (Broad Institute, 2010)
# Activity calls are given as the source filed them.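 The calls were made as follows: active = more than half of replicate measurements showing over 20% loss of kinase signal relative to plate controls; inconclusive = some but at most half of replicates over 20% loss; inactive = no replicate over 20% signal loss.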
# Biological target: Glycogen synthase kinase-3 alpha (Homo sapiens) (UniProt P49840)
# Experiment: concentration-response blocking of human GSK3A – biochemical, luminescence, cell-free homogeneous, retest, dose response (AID 463203)
# Settings: GSK-3 alpha enzyme, ADP-Glo luminescence, 60 min
# Sequence of Glycogen synthase kinase-3 alpha (Homo sapiens) (P49840 whole entry, looked up): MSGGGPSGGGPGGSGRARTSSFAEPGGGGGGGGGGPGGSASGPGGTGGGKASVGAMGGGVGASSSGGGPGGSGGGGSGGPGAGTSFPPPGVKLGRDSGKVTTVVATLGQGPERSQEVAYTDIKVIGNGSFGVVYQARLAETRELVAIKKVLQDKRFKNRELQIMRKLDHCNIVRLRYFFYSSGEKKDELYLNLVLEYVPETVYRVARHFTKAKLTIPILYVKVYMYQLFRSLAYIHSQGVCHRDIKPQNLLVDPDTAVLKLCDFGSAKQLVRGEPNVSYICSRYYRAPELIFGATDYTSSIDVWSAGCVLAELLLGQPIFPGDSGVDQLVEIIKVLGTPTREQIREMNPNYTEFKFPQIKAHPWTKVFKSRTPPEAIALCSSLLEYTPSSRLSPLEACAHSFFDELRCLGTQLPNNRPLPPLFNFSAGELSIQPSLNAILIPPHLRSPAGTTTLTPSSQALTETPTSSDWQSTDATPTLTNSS
row,Structure (SMILES),AC50
1,CCCCOc1ccc(-c2nnc(N)s2)cc1,> 30 µM (inactive)
2,O=c1[nH]c(=S)n(C2CC2)c(O)c1C=NCc1cccnc1,28.2 µM
3,COc1ccc2[nH]c(C(=O)O)c(NS(=O)(=O)c3ccc(OC)c(OC)c3)c2c1,6.63 µM
4,Cc1nnc(NC(=O)c2cccc(S(=O)(=O)N3CC(c4ccccc4)CC3=O)c2)s1 (stereo not drawn),> 30 µM (inactive)
5,O=S(=O)(Nc1ccccc1O)c1cccc2cccnc12,> 30 µM (inactive)
6,CCOc1ccc(-c2nc(N)ncc2-c2ccccc2)c(O)c1,20.7 µM
7,COc1ccc(-c2nnc(SCC(=O)Nc3ccccc3OC)o2)cc1,> 30 µM (inactive)
8,CC(C)N1C(=O)/C(=C/C=C/c2ccco2)C(=O)N(Cc2ccco2)C1=O,> 30 µM (inactive)
9,Cc1cccc(NC(=O)CSCC(=O)OCc2ccccn2)c1,> 30 µM (inactive)
10,COCc1cc(C)nc(OCC(=O)N/N=C/c2ccc(O)cc2)c1C#N,13.3 µM
11,CN(C)c1ccc(Nc2nc(N)c3ccccc3n2)cc1,18.2 µM
12,CCCCC(=O)Nc1nn(CC)c2nc3c(C)cccc3cc12,> 30 µM (inactive)
13,O=C(CSc1nnc(SCC(=O)c2ccco2)s1)c1ccco1,> 30 µM (inactive)
14,NS(=O)(=O)c1ccc(-c2ccc(/C=C3\SC(=O)NC3=O)o2)cc1,5.29 µM
15,COc1ccc(OCc2nc(N)nc(Nc3ccc(C)cc3)n2)cc1,> 30 µM (inactive)
16,COc1ccc(OCC(=O)N2CCN(c3nnc(-c4ccc(C)cc4)c4ccccc34)CC2)cc1,> 30 µM (inactive)
17,COCc1nnc(NC(=O)CCCCCN2C(=O)c3ccccc3C2=O)s1,> 30 µM (inactive)
18,COC(=O)c1c(NC(=O)CN2C(=O)NC3(CCC(C)CC3)C2=O)sc2c1CCC2 (stereo not drawn),> 30 µM (inactive)
19,Cc1cc(C)nc(NS(=O)(=O)c2cccs2)c1,> 30 µM (inactive)
20,S=C(NCCc1ccccc1)Nc1cccc2cnccc12,> 30 µM (inactive)
21,Cc1ccc(C(=O)Nc2cccc(C(=O)NC3CCCCC3)c2)cc1,> 30 µM (inactive)
22,CCCCOC(=O)C1=C(C)Nc2ncnn2C1c1ccc(OC)c(OC)c1 (stereo not drawn),> 30 µM (inactive)
23,Oc1ccc(-c2nnc(-c3ccc(O)cc3)nn2)cc1,> 30 µM (inactive)
24,COc1ccc(CNc2cc(NCCCO)c([N+](=O)[O-])c3nonc23)cc1,13.3 µM
25,O=C(O)COc1c(Cl)cc(/C=C2/NC(=O)NC2=O)cc1Br,23 µM
26,N#CCC(=O)Nc1sc2c(c1C(N)=O)CCCC2,20.2 µM

row,Structure (SMILES),AC50
1,CCOC(=O)c1nnn(-c2nonc2N)c1COc1c(C=O)cccc1OC,4.32 µM
2,CC(=O)c1c(O)cc(O)cc1CC(=O)O,> 30 µM (inactive)
3,Cc1ccc(C2C(C#N)=C(N)Oc3n[nH]c(-c4cccnc4)c32)o1 (stereo not drawn),> 30 µM (inactive)
4,CCOc1ccc(Nc2nc(N)c3ccccc3n2)cc1,31.2 µM
5,Cc1cccc(N(C)C(=O)C2CCCN2S(=O)(=O)c2cccc3nsnc23)c1 (stereo not drawn),24.8 µM
6,COc1ccc2c(c1)C(SCC(=O)NCc1ccccc1)CC(C)(C)O2 (stereo not drawn),> 30 µM (inactive)
7,c1ccc(-c2noc(CSc3nnnn3-c3ccccc3)n2)cc1,> 30 µM (inactive)
8,COc1ccc([C@H]2[C@H](C(=O)C(C)(C)C)N3N=Cc4ccccc4C3[C@]23N=C(c2ccccc2)OC3=O)cc1OC (stereo partly drawn),> 30 µM (inactive)
9,CC1CCN(Cc2c(C(=O)N/N=C/c3ccc(C(C)(C)C)cc3)nnn2-c2nonc2N)CC1,> 30 µM (inactive)
10,Nc1nonc1-n1nnc(C(=O)N/N=C/c2ccccc2Cl)c1-c1ccccc1,> 30 µM (inactive)
11,CCOC(=O)C1=C(c2ccccc2)Nc2ncnn2C1c1cccc(OC)c1OC (stereo not drawn),9 µM
12,O=C(CSc1nc2ccccc2o1)Nc1nc2ccc(Br)cc2s1,> 30 µM (inactive)
13,COc1ccc(S(=O)(=O)NCc2ccc(C(=O)N3CCC4(CC3)OCCO4)cc2)cc1,> 30 µM (inactive)
14,COCCNC(=O)c1ccc(Cn2c(=S)[nH]c3cc4c(cc3c2=O)OCO4)cc1,> 30 µM (inactive)
15,CC1CN(c2nc(N(C)c3ccccc3)nc(N)c2[N+](=O)[O-])CC(C)O1 (stereo not drawn),> 30 µM (inactive)
16,CCOc1ccc(-c2c(C(=O)N/N=C(\C)c3cccnc3)nnn2-c2nonc2N)cc1,> 30 µM (inactive)
17,c1ccc2[nH]c(Cn3nnc4ccccc43)nc2c1,> 30 µM (inactive)
18,O=[N+]([O-])c1c(NCCCO)cc(Sc2nc3ccccc3s2)c2nonc12,> 30 µM (inactive)
19,O=C1Nc2ccccc2Sc2ccccc21,> 30 µM (inactive)
20,COc1ccc(C(=O)NCC(=O)N/N=C(C)\C=C\c2ccccc2)cc1OC,> 30 µM (inactive)
21,CC(=C/c1ccccc1)/C=N/NC(=O)c1nnn(-c2nonc2N)c1CN1CCC(C)CC1,> 30 µM (inactive)
22,COc1cc(/C=N/NC(=O)c2ccncc2)ccc1OCCN1CCCCC1,> 30 µM (inactive)
23,O=C1/C(=C/c2ccc3c(c2)OCO3)Oc2cc(OCC(=O)N3CC(O)C[C@H]3C(=O)O)ccc21 (stereo partly drawn),4.07 µM
24,CCCCN(CC)C(=O)c1oc2ccc(S(=O)(=O)N3CCCC3)cc2c1C,> 30 µM (inactive)
25,O=C(COC(=O)c1cccc(S(=O)(=O)N2CCOCC2)c1)Nc1ncc(Cl)cc1Cl,> 30 µM (inactive)
26,O=C(Nc1ccccc1C(=O)NC1CCCCC1)c1ccco1,> 30 µM (inactive)

row,Structure (SMILES),AC50
1,O=C(NCc1ccc2c(c1)OCO2)c1cc(COc2c(F)cccc2F)on1,> 30 µM (inactive)
2,CCN(CC)CCNC(=O)c1ccc(NC(=O)C2CCN(c3ncnc4sc(C)c(C)c34)CC2)cc1,22.8 µM
3,O=C(NC1(C(F)(F)F)NC(=O)N(Cc2cccnc2)C1=O)c1ccncc1 (stereo not drawn),> 30 µM (inactive)
4,Cc1ccc(S(=O)(=O)Nc2cccc3cccnc23)cc1,> 30 µM (inactive)
5,Cc1ccnc(SCC(=O)Nc2sc3c(c2C#N)CCCC3)n1,> 30 µM (inactive)
6,CN(C)Cc1c(C(=O)N/N=C/c2ccc(-c3ccccc3)cc2)nnn1-c1nonc1N,> 30 µM (inactive)
7,O=c1cc(-c2ccc(O)cc2)oc2c1ccc1ccccc12,1.33 µM
8,CCOc1ccc2[nH]cc(S(=O)(=O)c3ccc(C)cc3)c(=O)c2c1,> 30 µM (inactive)
9,C=CCn1c(O)c(/C(C)=N/N2CCCCCC2)c(=O)[nH]c1=O,28.8 µM
10,Cc1cccc2c(N=Nc3ccccc3)c(O)[nH]c12,> 30 µM (inactive)
11,COC(=O)c1ccc(CSc2ccc3nnc(-c4ccc(OC)cc4)n3n2)o1,17.1 µM
12,CN(C)C(=O)Oc1ccc(OC(=O)N(C)C)cc1,> 30 µM (inactive)
13,CCOCCOC(=O)c1[nH]c2c(c1C)C(=O)CC(c1cc(OC)c(OC)c(OC)c1)C2 (stereo not drawn),> 30 µM (inactive)
14,N#Cc1c(-c2ccccc2Cl)c2c([nH]c1=O)-c1ccccc1OC2,> 30 µM (inactive)
15,Fc1ccccc1/C=N/Nc1ncnc2ccccc12,> 30 µM (inactive)
16,CCN1CCN(Cc2c(O)ccc3c2O/C(=C\C=C\c2ccccc2OC)C3=O)CC1,> 30 µM (inactive)
17,Cc1cc2nc(-c3ccc(SCC(=O)NC(C)C)nc3)[nH]c2cc1C,> 30 µM (inactive)
18,O=C(Nc1cccc(O)c1)c1ccc([N+](=O)[O-])cc1Cl,> 30 µM (inactive)
19,CC(=O)Nc1ccc2nsnc2c1,> 30 µM (inactive)
20,CCN1CCN(c2c(Cl)cccc2NC(=O)c2cccs2)CC1,> 30 µM (inactive)
21,CCOc1ccc(-c2c(C(=O)N/N=C(\C)c3ccncc3)nnn2-c2nonc2N)cc1,20.9 µM
22,c1ccc(N2CCN(c3cnc4ccccc4n3)CC2)cc1,> 30 µM (inactive)
23,Cc1ccc(-c2cc(-c3n[nH]c(=S)o3)c3ccccc3n2)cc1,27.7 µM
24,NC(=O)c1sc2nc3c(c(-c4ccco4)c2c1N)CCCC3,13.6 µM
25,Cc1cccc(NC(=O)c2sc(Cl)nc2-c2ccccc2)c1,> 30 µM (inactive)
26,Cc1cccc(-c2nnc3n2N=C(c2ccc(Br)cc2)CS3)c1,> 30 µM (inactive)

row,Structure (SMILES),AC50
1,Cc1ccc(CSc2nnc(-c3cccnc3)o2)cc1,> 30 µM (inactive)
2,Fc1cccc(Nc2ncnc3sccc23)c1,> 30 µM (inactive)
3,Cn1c(=O)c2[nH]c(NCC3CCCO3)nc2n(-c2ccccc2)c1=O (stereo not drawn),11 µM
4,COc1c(NC(C)=O)c2ccccc2c2ccccc12,> 30 µM (inactive)
5,COc1ccc(-c2cc(C(=O)N3CCN(c4ccccc4)CC3)no2)cc1,> 30 µM (inactive)
6,Cc1ccc(NC(=O)c2cc(-n3cnnc3)ccc2Cl)c(C)c1,> 30 µM (inactive)
7,CCN1/C(=C/C(C)=O)Sc2ccc(OC)cc21,16.5 µM
8,Brc1cccc(CSc2nnc(-c3ccncc3)o2)c1,7.58 µM
9,CCN(CC)CCCN(Cc1cc2cc3c(cc2[nH]c1=O)OCO3)C(=O)Nc1ccccc1OC,> 30 µM (inactive)
10,Cc1cc(=O)[nH]c2c(C)c(N)ccc12,> 30 µM (inactive)
11,CNc1nc(Cl)c(SC)c(NC2CCCCC2)n1,> 30 µM (inactive)
12,COC(=O)c1c(NC(=O)COC(=O)c2ccccn2)sc(C)c1C,> 30 µM (inactive)
13,Cc1ccc(S(=O)(=O)c2c(C(=O)c3ccccc3)cnc3cc4c(cc23)OCCO4)cc1,> 30 µM (inactive)
14,COc1ccc(C(=O)c2sc(NC(C)C)nc2N)cc1OC,0.234 µM
15,COc1ccc(C(=O)c2sc3nc(-c4ccc(OC)cc4)ccc3c2N)cc1,> 30 µM (inactive)
16,COc1ccc(-c2noc(CSc3nc(-c4ccccc4)cc(=O)[nH]3)n2)cc1,> 30 µM (inactive)
17,CC1(C)CC(=O)C(C(C2=C(O)CC(C)(C)CC2=O)c2cccc(O)c2)C(=O)C1 (stereo not drawn),> 30 µM (inactive)
18,COc1cccc(Cn2nnc(C(=O)Nc3cc(Cl)ccc3OC)c2N)c1,> 30 µM (inactive)
19,CC(C)c1ccc(C2CC(=O)N3CN(Cc4ccco4)CSC3=C2C#N)cc1 (stereo not drawn),21 µM
20,CC(C)OC(=O)CSc1nc(N)c(C#N)c(-c2ccco2)c1C#N,> 30 µM (inactive)
21,O=[N+]([O-])c1cnccc1NC1CCCCC1,> 30 µM (inactive)
22,Nc1nc(NCc2ccccc2)nc(NCc2ccccc2)c1[N+](=O)[O-],> 30 µM (inactive)
23,COC(=O)c1cn(-c2ccccc2)nc1-c1cccnc1,> 30 µM (inactive)
24,COc1cc(/C=N/NC(=O)c2ccc(COc3ccccc3Cl)o2)cc(Br)c1O,> 30 µM (inactive)
25,CC1CCCCC12NC(=O)N(CC(=O)Nc1sccc1C(N)=O)C2=O (stereo not drawn),> 30 µM (inactive)
